Experimental data as given in PMC9266460, “KSK-74: Dual Histamine H3 and Sigma-2 Receptor Ligand with Anti-Obesity Potential” (International Journal of Molecular Sciences, 2022).

Columns and labels:
[1] = tested on: rats fed a palatable diet; assay: Plasma triglyceride and corticosterone levels in the model of excessive eating; format: in vivo, female Wistar rats; conditions: KSK 10 mg/kg, phentermine 7 mg/kg
Experimental: Blood was collected from the left carotid artery and then centrifuged at 600× g (15 min, 4 °C) to obtain plasma.
To determine plasma triglyceride levels, standard enzymatic and spectrophotometric tests (Cat. No 1-053-A150, Biomaxima S.A., Lublin, Poland) were used. The ELISA Kit (Item No. 501320, Cayman Chemical, Ann Arbor, MI, USA) was used to determine corticosterone levels in plasma.

H3R = target: T1, H3R (Homo sapiens, UniProt Q9Y5N1); assay: Intrinsic activity at H3R, range over both methods (LANCE Ultra cAMP and Aequoscreen); format: cell-based; conditions: read-out: IC50 at H3R, range depending on the assay method
T1 construct: the Aequoscreen line co-expresses apoaequorin
Experimental: The Aequoscreen technology uses recombinant cell lines with stable co-expression of apoaequorin and a GPCR as a system to detect activation of the receptor, following the addition of an agonist, via the measurement of light emission. For the measurement, cells (frozen, ready to use) were thawed and resuspended in 10 mL of assay buffer containing 5 μM of coelenterazine h. The cell suspension was then placed in a 10 mL Falcon tube, fixed on a rotating wheel, and incubated overnight at RT° in the dark. Cells were diluted with assay buffer at 5000 cells/20 µL. Agonistic ligands 2 × (50 μL/well), diluted in assay buffer, were prepared in 1/2 area white polystyrene plates, and 50 μL of cell suspension was dispersed on the ligands using the injector. The light emission was recorded for 20 s. Cells were incubated with antagonist for 15 min at RT°. Then, 50 µL of agonist (final concentration equal to 3 × EC80) was injected into the mixture of cells and antagonist and light emission was recorded for 20 s. The LANCE Ultra cAMP assay as a homogeneous time-resolved fluorescence resonance energy transfer (TR-FRET) immunoassay is designed to measure cAMP produced upon the modulation of adenylyl cyclase activity by GPCRs. […] For the measurement, cells (frozen, ready to use) were thawed and resuspended in 4 mL of HBSS 1×. […]

H3 histamine receptor = H3 histamine receptor (Homo sapiens, UniProt Q9Y5N1); assay: Intrinsic activity at H3R, Aequoscreen assay; format: cell-based
Experimental: Intrinsic activity studies were performed using two methods, Aequoscreen and LANCE Ultra cAMP assays, according to the manufacturer of the ready-to-use cells with stable expressions of the H3 histamine receptor (Perkin Elmer).
The Aequoscreen technology uses recombinant cell lines with stable co-expression of apoaequorin and a GPCR as a system to detect activation of the receptor, following the addition of an agonist, via the measurement of light emission. For the measurement, cells (frozen, ready to use) were thawed and resuspended in 10 mL of assay buffer containing 5 μM of coelenterazine h. The cell suspension was then placed in a 10 mL Falcon tube, fixed on a rotating wheel, and incubated overnight at RT° in the dark. Cells were diluted with assay buffer at 5000 cells/20 µL. Agonistic ligands 2 × (50 μL/well), diluted in assay buffer, were prepared in 1/2 area white polystyrene plates, and 50 μL of cell suspension was dispersed on the ligands using the injector. The light emission was recorded for 20 s. Cells were incubated with antagonist for 15 min at RT°. Then, 50 µL of agonist (final concentration equal to 3 × EC80) was injected into the mixture of cells and antagonist and light emission was recorded for 20 s.

adipose tissue = assay: Histological examination of adipose tissue (Masson's trichrome); format: in vivo, female Wistar rats; conditions: palatable diet; for inflammatory infiltrates in adipose tissue (histological description) / number of adipocytes per 0.1 mm^2 of cross-sectional area / inflammatory index of the adipose tissue: KSK 10 mg/kg, phentermine 7 mg/kg; for number of adipocytes per 0.1 mm^2 of cross-sectional area: means ± SD, n = 6; for inflammatory index of the adipose tissue: standard diet + vehicle 0.5 ± 0.34
Experimental: Adipose tissue samples were prepared for histology using Masson’s trichrome stain (Merck) by fixation in 4% formaldehyde, dehydration in graded alcohol, and embedded in paraffin. The tissue samples were then sectioned using a microtome of 5 μm thickness. Six random fields from each section were analyzed in a blinded manner with an Olympus BX41 light microscope (Olympus, Tokyo, Japan) at magnifications of ×20, ×40 and ×100, and digital images were captured with an Olympus UC90 color camera. The quantitation of the number of adipocytes was performed in eight fields/slide with ×100 objective using an image analysis system: CellSensDimension (Olympus, Tokyo, Japan). The numerical density of the adipocytes was obtained by counting the total number of adipocytes per high-power field ([…]), and then this number was converted to 0.1 mm^2. According to stereometric rules, adipocytes tangent to the left and top edges of the image field were not counted. A semi-quantitative scale was used to assess the inflammatory response in adipose tissue. The following were evaluated on a subjective scale: inflammatory cell infiltration between adipocytes (0—normal, 1—few cells, 2—local clusters, and 3—extensive infiltrates), perivascular infiltration of immune cells (0—normal, 1—few cells, and 2—ring of inflammatory cells), widening of the septum (0—normal and 1—widening), and capillary congestion (0—normal and 1—congestion). A sum calculated from independently assessed values was calculated for each animal as an index of inflammation.

Sequence of H3 histamine receptor (Q9Y5N1 whole entry): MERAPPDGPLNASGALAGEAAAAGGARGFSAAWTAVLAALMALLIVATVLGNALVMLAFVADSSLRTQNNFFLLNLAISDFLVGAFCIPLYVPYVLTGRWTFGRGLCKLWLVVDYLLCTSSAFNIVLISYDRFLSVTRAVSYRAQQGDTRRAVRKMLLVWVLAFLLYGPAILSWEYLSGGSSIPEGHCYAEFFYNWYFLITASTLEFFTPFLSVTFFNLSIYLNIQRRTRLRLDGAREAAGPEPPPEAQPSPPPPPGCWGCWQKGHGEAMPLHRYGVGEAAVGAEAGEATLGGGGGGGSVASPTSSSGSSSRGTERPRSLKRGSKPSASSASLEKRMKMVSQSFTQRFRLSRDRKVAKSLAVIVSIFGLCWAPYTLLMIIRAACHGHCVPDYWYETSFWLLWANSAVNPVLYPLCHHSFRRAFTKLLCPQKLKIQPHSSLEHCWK
T1 sequence (Q9Y5N1 whole entry): as above

Row | Compound | plasma triglyceride levels vs palatable diet + vehicle [1] | IC50 (H3R) [nM] | IC50 (H3 histamine receptor) [nM] | inflammatory infiltrates in adipose tissue (histological description) (adipose tissue) | number of adipocytes per 0.1 mm^2 of cross-sectional area (adipose tissue) [per 0.1 mm^2] | inflammatory index of the adipose tissue (adipose tissue) | number of rats, Capillary Congestion grade 0-Normal (adipose tissue; n = 6 per group) | number of rats, Capillary Congestion grade 1-Congestion (adipose tissue; n = 6 per group) | number of rats, Inflammatory Cell Infiltration grade 1-Few Cells (adipose tissue; n = 6 per group) | number of rats, Inflammatory Cell Infiltration grade 2-Local Clusters (adipose tissue; n = 6 per group) | number of rats, Perivascular Infiltration grade 1-Few Cells (adipose tissue; n = 6 per group) | number of rats, Perivascular Infiltration grade 2-Ring of Cells (adipose tissue; n = 6 per group) | number of rats, Widening of the Septum grade 0-Normal (adipose tissue; n = 6 per group) | number of rats, Widening of the Septum grade 1-Widening (adipose tissue; n = 6 per group) | number of rats, Inflammatory Cell Infiltration grade 0-Normal (adipose tissue; n = 6 per group) | number of rats, Perivascular Infiltration grade 0-Normal (adipose tissue; n = 6 per group)
1 | CCC(=O)c1ccc(OCCCCCCN2CCN(c3ccncc3)CC2)cc1 [KSK-60] | No differences in plasma triglyceride levels | 0.8 to 1.5 | 1.49 ± 0.2 | Many inflammatory cells infiltrated the area of adipocytes and the perivascular area | 18.02 ± 1.38 | 4.5 ± 0.80 | 2 | 4 | 2 | 4 | 2 | 4 | 1 | 5 | – | –
2 | CCC(=O)c1ccc(OCCCCCCCCN2CCN(c3ccncc3)CC2)cc1 [KSK-74] | lower plasma triglyceride levels | 23 to 32 | 31.9 ± 0.5 | slightly less inflammatory infiltrates | 34.78 ± 4.78 | comparable to the standard control | 5 | 1 | 3 | 2 | 1 | 3 | 3 | 3 | 1 | 2
